# Reference: ChEMBL document CHEMBL3822377, “Locking PDK1 in DFG-out conformation through 2-oxo-indole containing molecules: Another tools to fight glioblastoma” (Eur J Med Chem, 2016)
# pIC50: −log10 of the molar value.
# What was measured:
# [1] = target: T1, 3-phosphoinositide-dependent protein kinase 1 (Homo sapiens) (UniProt O15530); assay: Inhibition of PDK1 (unknown origin) at 10 uM by FRET-based Z-lyte assay
# T1 sequence (whole entry): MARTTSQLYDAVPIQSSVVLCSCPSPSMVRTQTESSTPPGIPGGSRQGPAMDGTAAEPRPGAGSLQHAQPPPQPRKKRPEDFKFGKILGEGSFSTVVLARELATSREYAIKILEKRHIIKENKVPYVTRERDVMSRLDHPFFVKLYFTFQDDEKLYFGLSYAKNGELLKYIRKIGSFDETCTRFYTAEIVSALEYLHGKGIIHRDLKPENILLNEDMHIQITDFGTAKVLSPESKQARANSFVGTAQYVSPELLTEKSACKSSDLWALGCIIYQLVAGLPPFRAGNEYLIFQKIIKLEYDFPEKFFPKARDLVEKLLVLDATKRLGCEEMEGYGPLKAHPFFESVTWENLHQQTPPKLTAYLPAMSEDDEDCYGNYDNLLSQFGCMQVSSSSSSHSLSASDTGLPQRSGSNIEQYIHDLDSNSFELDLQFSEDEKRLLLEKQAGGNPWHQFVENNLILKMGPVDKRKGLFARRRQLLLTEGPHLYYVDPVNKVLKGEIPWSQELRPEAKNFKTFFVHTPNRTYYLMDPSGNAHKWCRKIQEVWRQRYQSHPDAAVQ
# [2] = target: CDK7/Cyclin H/MNAT1 (Homo sapiens) (UniProt P51946+P50613+P51948); assay: Inhibition of His-tagged full-length human recombinant CDK7/Cyclin H/MNAT1 expressed in baculovirus system at 100 nM by adapta assay
# [3] = target: Inhibitor of nuclear factor kappa-B kinase subunit alpha (Homo sapiens) (UniProt O15111); assay: Inhibition of His-tagged full-length human IKKalpha expressed in baculovirus system at 100 nM by adapta assay
# [4] = target: PI3-kinase p110-alpha/p85-alpha (Homo sapiens) (UniProt P27986+P42336); assay: Inhibition of His-tagged full-length human recombinant PIK3CA/PIK3R1 expressed in baculovirus system at 100 nM by adapta assay
# [5] = target: PI3-kinase p110-delta/p85-alpha (Homo sapiens) (UniProt P27986+O00329); assay: Inhibition of His-tagged full-length human PIK3CD/PIK3R1 expressed in baculovirus system at 100 nM by adapta assay
# [6] = target: AMP-activated protein kinase, AMPK (Homo sapiens) (UniProt P54646+O43741+P54619+Q9UGJ0+Q9Y478+Q13131+Q9UGI9); assay: Inhibition of GST/His-tagged full-length human recombinant AMPK A2/B1/G1 expressed in baculovirus system at 100 nM by Z-lyte assay
# [7] = target: Aurora kinase A (Homo sapiens) (UniProt O14965); assay: Inhibition of His-tagged full-length recombinant human Aurora A expressed in baculovirus system at 100 nM by Z-lyte assay
# [8] = target: Cyclin-dependent kinase 5/CDK5 activator 1 (Homo sapiens) (UniProt Q00535+Q15078); assay: Inhibition of His-tagged full-length human CDK5/p35 expressed in baculovirus system at 100 nM by Z-lyte assay
# [9] = target: Dual specificity protein kinase CLK1 (Homo sapiens) (UniProt P49759); assay: Inhibition of GST-tagged human CLK1 expressed in Escherichia coli at 100 nM by Z-lyte assay
# [10] = target: Glycogen synthase kinase-3 alpha (Homo sapiens) (UniProt P49840); assay: Inhibition of GSK3 alpha (unknown origin) at 100 nM by Z-lyte assay
# [11] = target: G protein-coupled receptor kinase 5 (Homo sapiens) (UniProt P34947); assay: Inhibition of GST-tagged full-length human recombinant GRK5 expressed in baculovirus system at 100 nM by Z-lyte assay
# [12] = target: Glycogen synthase kinase-3 beta (Homo sapiens) (UniProt P49841); assay: Inhibition of His-tagged full-length recombinant human GSK3 beta expressed in baculovirus system at 100 nM by Z-lyte assay
# [13] = target: Mitogen-activated protein kinase 3 (Homo sapiens) (UniProt P27361); assay: Inhibition of GST-tagged full-length recombinant human MAPK3 expressed in baculovirus system at 100 nM by Z-lyte assay
# [14] = target: Mitogen-activated protein kinase 14 (Homo sapiens) (UniProt Q16539); assay: Inhibition of GST-tagged full-length human MAPK14 (direct) expressed in Escherichia coli at 100 nM by Z-lyte assay
# [15] = target: Mitogen-activated protein kinase 8 (Homo sapiens) (UniProt P45983); assay: Inhibition of His-tagged full-length human MAPK8 expressed in baculovirus system at 100 nM by Z-lyte assay
# [16] = target: Mitogen-activated protein kinase 9 (Homo sapiens) (UniProt P45984); assay: Inhibition of His-tagged full-length recombinant human MAPK9 expressed in baculovirus system at 100 nM by Z-lyte assay
# [17] = target: MAP kinase-activated protein kinase 2 (Homo sapiens) (UniProt P49137); assay: Inhibition of His-tagged full-length recombinant human MAPKAPK2 expressed in Escherichia coli at 100 nM by Z-lyte assay
# [18] = target: Serine/threonine-protein kinase MARK1 (Homo sapiens) (UniProt Q9P0L2); assay: Inhibition of GST-tagged full-length recombinant human MARK1 expressed in baculovirus system at 100 nM by Z-lyte assay
# [19] = target: Protein kinase C epsilon type (Homo sapiens) (UniProt Q02156); assay: Inhibition of full-length recombinant human PRKCE expressed in baculovirus system at 100 nM by Z-lyte assay
# [20] = target: Rho-associated protein kinase 2 (Homo sapiens) (UniProt O75116); assay: Inhibition of catalytic recombinant GST-tagged human ROCK2 expressed in baculovirus system at 100 nM by Z-lyte assay
# U-87 MG = assay: Induction of apoptosis in human U87MG cells assessed as early apoptotic cells by measuring phosphatidylserine externalisation at 10 uM after 72 hrs by AnnexinV/FITC staining-based flow cytometry (reference value: 6.39%); format: functional, U-87MG ATCC
# [21] = (§1) Antiproliferative activity against human GSC cells after 7 days by MTS assay; format: functional, cell-based; conditions: 168 h
# GSC = assay: as §1; format: functional, cell-based
# [22] = Induction of apoptosis in human GSC cells assessed as late apoptotic cells by measuring phosphatidylserine externalisation at 10 uM after 7 days in presence of 7-amino-actinomysin by AnnexinV/FITC staining-based flow cytometry (reference value: 4.14%); format: functional
# [23] = Induction of apoptosis in human GSC cells assessed as early apoptotic cells by measuring phosphatidylserine externalisation at 10 uM after 7 days by AnnexinV/FITC staining-based flow cytometry (reference value: 6.69%); format: functional
# [24] = Induction of apoptosis in human GSC cells assessed as dead cells by measuring phosphatidylserine externalisation at 10 uM after 7 days in presence of 7-amino-actinomysin by AnnexinV/FITC staining-based flow cytometry (reference value: 1.68%); format: functional
# [25] = target: T1, 3-phosphoinositide-dependent protein kinase 1 (Homo sapiens); assay: Inhibition of PDK1 in human U87MG cells assessed as reduction in AKT phosphorylation at Thr308 residue at 10 uM measured at 120 mins by ELISA relative to control; format: cell-based; conditions: U-87MG ATCC
# Glycogen synthase kinase-3 alpha (Homo sapiens), sequence (P49840 2-483 limits assumed): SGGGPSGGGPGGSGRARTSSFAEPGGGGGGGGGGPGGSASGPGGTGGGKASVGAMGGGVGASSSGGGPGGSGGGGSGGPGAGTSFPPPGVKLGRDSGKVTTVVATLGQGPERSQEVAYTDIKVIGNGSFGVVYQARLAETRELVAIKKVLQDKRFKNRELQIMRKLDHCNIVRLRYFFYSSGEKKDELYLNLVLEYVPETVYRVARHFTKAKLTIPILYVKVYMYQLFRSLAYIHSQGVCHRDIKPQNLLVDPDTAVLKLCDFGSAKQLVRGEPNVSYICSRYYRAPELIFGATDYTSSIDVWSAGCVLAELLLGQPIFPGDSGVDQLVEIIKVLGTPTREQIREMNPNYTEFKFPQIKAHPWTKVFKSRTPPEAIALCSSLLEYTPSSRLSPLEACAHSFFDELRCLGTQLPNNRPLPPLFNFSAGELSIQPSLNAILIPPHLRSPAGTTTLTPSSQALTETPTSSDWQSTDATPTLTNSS
# G protein-coupled receptor kinase 5 (Homo sapiens), sequence (P34947 whole entry, looked up): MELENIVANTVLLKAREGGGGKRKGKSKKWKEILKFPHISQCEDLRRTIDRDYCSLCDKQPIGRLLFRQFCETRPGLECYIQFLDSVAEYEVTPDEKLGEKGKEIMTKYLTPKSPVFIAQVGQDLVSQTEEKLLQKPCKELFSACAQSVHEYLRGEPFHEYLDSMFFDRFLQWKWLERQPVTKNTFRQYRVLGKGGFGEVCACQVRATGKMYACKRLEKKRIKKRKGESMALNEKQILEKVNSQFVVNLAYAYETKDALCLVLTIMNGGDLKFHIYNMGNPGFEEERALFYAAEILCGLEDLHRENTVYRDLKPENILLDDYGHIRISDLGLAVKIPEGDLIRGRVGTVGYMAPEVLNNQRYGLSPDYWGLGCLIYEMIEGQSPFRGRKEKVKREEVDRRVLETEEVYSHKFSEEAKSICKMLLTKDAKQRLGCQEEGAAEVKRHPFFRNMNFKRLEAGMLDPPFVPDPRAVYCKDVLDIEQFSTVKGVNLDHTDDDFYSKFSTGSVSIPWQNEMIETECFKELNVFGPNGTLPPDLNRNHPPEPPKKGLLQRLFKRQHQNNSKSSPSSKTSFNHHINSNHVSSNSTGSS
# MAP kinase-activated protein kinase 2 (Homo sapiens), sequence (P49137 whole entry, looked up): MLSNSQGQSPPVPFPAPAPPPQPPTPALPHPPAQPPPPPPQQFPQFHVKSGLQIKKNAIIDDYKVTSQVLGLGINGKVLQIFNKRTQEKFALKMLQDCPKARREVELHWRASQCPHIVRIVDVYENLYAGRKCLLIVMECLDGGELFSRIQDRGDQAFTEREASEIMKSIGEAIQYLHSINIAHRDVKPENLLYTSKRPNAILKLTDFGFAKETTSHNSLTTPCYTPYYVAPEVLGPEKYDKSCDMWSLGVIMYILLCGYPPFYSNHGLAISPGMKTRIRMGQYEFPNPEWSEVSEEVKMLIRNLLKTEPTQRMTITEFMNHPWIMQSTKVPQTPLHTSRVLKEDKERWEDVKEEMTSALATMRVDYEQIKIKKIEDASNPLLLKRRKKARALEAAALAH
# Rho-associated protein kinase 2 (Homo sapiens), sequence (O75116 whole entry, looked up): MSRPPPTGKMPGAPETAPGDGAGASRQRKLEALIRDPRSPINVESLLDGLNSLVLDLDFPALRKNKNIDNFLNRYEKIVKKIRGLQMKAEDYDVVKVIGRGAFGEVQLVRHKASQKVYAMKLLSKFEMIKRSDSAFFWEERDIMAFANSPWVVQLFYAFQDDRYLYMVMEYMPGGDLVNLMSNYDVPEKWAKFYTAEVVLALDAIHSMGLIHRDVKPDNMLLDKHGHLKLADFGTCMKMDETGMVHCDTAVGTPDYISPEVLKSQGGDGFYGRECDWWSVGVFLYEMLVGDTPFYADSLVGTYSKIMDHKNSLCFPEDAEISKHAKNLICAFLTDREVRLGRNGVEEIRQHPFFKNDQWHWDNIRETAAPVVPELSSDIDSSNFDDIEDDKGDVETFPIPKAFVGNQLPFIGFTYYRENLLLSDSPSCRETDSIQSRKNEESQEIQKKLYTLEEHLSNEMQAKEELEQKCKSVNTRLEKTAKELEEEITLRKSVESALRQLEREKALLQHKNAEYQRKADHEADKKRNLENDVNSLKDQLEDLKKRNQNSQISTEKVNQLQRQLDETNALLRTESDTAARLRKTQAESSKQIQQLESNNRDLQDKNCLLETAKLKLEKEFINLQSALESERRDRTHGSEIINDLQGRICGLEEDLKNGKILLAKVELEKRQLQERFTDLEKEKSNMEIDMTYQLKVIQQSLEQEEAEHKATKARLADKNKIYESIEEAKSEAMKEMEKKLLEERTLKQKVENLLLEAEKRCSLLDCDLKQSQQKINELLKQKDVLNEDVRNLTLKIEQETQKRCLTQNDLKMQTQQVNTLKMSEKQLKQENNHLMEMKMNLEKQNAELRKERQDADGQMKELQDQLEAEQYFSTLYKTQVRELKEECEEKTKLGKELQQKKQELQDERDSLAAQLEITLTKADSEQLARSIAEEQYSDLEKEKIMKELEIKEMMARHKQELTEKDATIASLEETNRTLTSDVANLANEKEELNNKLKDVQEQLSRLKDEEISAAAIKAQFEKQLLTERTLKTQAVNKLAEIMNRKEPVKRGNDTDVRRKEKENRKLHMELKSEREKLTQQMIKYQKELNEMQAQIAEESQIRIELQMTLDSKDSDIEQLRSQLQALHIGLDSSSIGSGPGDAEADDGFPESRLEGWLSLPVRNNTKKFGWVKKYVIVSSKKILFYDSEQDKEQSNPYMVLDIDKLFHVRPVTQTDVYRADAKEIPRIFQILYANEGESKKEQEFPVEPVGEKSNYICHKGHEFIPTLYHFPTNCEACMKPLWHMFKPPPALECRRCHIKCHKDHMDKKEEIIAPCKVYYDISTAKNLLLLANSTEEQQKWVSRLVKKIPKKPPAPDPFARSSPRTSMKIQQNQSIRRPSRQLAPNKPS
# Dual specificity protein kinase CLK1 (Homo sapiens), sequence (P49759 whole entry, looked up): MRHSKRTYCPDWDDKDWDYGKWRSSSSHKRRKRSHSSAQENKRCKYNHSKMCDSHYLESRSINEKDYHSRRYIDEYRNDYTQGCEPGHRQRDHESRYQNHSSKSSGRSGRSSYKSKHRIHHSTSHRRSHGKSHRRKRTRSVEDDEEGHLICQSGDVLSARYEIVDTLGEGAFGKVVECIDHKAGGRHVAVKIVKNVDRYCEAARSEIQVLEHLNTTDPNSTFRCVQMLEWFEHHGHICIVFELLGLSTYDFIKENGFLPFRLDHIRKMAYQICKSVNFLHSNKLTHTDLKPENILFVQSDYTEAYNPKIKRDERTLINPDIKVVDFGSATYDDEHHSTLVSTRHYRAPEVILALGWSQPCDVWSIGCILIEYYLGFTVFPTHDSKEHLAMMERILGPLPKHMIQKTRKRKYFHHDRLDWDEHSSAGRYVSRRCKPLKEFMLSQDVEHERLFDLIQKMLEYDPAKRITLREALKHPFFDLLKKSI
# Cyclin-dependent kinase 5/CDK5 activator 1 (Homo sapiens), sequence (Q00535 whole entry): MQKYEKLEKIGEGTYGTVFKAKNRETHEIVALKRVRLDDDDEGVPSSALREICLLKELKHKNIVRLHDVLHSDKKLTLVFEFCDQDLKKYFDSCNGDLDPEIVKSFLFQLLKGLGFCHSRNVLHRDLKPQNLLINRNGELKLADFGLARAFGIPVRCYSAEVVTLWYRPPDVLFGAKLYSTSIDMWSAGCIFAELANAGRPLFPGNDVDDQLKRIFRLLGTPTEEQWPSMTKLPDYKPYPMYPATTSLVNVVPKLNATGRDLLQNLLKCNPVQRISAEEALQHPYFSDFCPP
# Cyclin-dependent kinase 5/CDK5 activator 1 (Homo sapiens), sequence (Q15078 99-307 partner limits assumed): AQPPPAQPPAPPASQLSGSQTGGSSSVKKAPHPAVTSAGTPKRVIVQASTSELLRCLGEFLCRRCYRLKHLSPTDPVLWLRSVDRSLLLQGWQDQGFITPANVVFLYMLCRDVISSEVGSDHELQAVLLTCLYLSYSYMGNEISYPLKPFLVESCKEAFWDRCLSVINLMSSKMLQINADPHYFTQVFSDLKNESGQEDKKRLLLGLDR
# Protein kinase C epsilon type (Homo sapiens), sequence (Q02156 whole entry): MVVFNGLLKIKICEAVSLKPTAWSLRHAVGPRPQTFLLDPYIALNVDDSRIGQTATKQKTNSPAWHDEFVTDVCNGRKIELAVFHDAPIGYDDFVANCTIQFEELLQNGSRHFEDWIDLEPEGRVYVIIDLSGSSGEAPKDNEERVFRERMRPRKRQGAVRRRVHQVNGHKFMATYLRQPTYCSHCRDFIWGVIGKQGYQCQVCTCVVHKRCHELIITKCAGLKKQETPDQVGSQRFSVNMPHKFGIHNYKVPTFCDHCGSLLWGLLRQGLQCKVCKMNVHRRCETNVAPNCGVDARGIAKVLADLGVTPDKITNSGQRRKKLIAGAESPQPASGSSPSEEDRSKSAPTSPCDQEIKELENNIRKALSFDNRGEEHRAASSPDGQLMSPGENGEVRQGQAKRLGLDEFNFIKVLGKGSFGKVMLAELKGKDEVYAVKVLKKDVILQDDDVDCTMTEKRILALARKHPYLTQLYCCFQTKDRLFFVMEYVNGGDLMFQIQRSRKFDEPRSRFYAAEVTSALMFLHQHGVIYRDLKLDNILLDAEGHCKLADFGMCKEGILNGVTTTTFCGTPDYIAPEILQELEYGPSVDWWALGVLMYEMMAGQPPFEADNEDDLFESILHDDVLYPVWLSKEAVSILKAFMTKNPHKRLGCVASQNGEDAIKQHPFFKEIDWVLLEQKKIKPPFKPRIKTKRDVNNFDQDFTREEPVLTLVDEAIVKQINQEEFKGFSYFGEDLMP
# Mitogen-activated protein kinase 14 (Homo sapiens), sequence (Q16539 whole entry): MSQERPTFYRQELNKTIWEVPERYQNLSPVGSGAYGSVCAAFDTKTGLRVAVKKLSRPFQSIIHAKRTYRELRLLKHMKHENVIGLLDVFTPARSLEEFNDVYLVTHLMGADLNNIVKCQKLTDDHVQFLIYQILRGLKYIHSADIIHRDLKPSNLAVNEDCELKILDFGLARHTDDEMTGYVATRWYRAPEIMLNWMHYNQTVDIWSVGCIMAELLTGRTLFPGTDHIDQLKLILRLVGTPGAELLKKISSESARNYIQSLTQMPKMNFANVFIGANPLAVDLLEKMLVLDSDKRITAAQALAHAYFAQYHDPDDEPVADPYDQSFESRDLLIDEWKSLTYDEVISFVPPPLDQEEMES
structure (smiles),measurement,setting,value
O=C(CNC(=O)c1cccn(Cc2ccc(F)c(F)c2)c1=O)Nc1ccc2c(c1)/C(=C/c1cnc[nH]1)C(=O)N2,inhibition,[1],87%
same,inhibition,[2],1%
same,inhibition,[3],3%
same,inhibition,[4],20%
same,inhibition,[5],17%
same,inhibition,[6],10%
same,inhibition,[7],38%
same,inhibition,[8],2%
same,inhibition,[9],-2%
same,inhibition,[10],43%
same,inhibition,[11],-4%
same,inhibition,[12],24%
same,inhibition,[13],-3%
same,inhibition,[14],3%
same,inhibition,[15],12%
same,inhibition,[16],-1%
same,inhibition,[17],0%
same,inhibition,[18],17%
same,inhibition,[19],3%
same,inhibition,[20],2%
same,Activity,U-87 MG,17.3%
same,pIC50,[21],8.47
same,Activity,GSC,Dose-dependent effect
same,Activity,[22],22.7%
same,Activity,[23],16.15%
same,Activity,[24],2.35%
same,inhibition,[25],19.6%
